Assay results published in article PMC9060465 (Proceedings of the National Academy of Sciences of the …, 2022).
pEC50, pKd: −log10 of the molar value.

Tests used:
[1] = target: T1, ECD of human GIPR (amino acids 26 to 138) (Homo sapiens, UniProt P48546); test: GIPR extracellular domain binding by surface plasmon resonance; conditions: equilibrium affinity, immobilized GIPR ectodomain, Biacore T200, HBS-EP pH 7.6; (SEM, n); read-out: GIPR SPR KD
T1 construct: human GIPR (amino acids 26 to 138); 6His; made in house; host or cells: CHO cells
T1 sequence (P48546 26-138): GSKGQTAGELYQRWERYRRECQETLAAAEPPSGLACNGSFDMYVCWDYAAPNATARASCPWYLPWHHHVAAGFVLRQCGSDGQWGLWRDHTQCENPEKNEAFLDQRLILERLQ
From the text: DNA encoding each protein was transfected into CHO cells for expression. After expression, the proteins were purified by affinity chromatography (HIS-Trap Ni, Cytiva) followed by size exclusion chromatography using a HiLoad 26/600 Superdex 75pg column (Cytiva) with PBS buffer. […] Surface plasmon resonance measurements were made using a Biacore T200 (Cytiva) and analyzed using T200 Evaluation Software Version 3.1. Receptor ectodomain proteins were covalently immobilized (∼250 resonance units) on Sensor Chip CM4 BR100534 using the Amine coupling Immobilization Wizard in the Biacore T200 Control Software Version 2.0.2. […]
(§1) and efficacy (% Top) of ligands to induce Gα s -GTPγS binding and cAMP accumulation in HEK293 cells expressing GIPR were determined. The equilibrium affinity (KD) of ligands for the immobilized ectodomain of the GIPR were quantified by surface plasmon resonance. […]
(§2) Functional potency (EC50) and efficacy (% Top) of ligands to induce Gα s-GTPγS binding and cAMP accumulation in HEK293 cells expressing GLP-1R were determined. The equilibrium affinity (KD) of ligands for the immobilized ectodomain of the GLP-1R were quantified by surface plasmon resonance. […]
(§3) recruitment to the GLP-1R were determined using the NanoBRET approach. The potency (EC50) and efficacy (% Top) for ligands to induce GLP-1R Internalization were determined using diffusion-enhanced resonance energy transfer. […]

GLP-1R [2] = target: T2, GLP-1R (Homo sapiens, UniProt P43220); test: β-arrestin 1 recruitment to the GLP-1R, NanoBRET; format: cell-based; set-up: expressed in transfected cells
Protocol: Functional potency (EC50) […]
as §1, with “resonance. Middle Panel: The affinity (Ki) of ligands for the GLP-1R was” for “resonance.”
as §2, §3
Target sequence in this assay (P43220 24-463): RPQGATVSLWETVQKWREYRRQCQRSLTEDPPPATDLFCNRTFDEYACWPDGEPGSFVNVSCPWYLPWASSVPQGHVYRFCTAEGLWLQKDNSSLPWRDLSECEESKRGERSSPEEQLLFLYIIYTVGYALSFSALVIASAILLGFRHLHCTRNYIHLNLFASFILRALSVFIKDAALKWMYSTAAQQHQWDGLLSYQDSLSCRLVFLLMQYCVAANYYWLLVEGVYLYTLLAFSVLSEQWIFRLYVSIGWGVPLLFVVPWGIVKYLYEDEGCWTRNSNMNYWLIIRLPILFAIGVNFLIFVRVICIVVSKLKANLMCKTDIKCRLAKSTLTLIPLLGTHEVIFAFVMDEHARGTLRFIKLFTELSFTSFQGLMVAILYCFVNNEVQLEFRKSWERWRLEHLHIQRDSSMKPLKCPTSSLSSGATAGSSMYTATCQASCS
Target sequence in this assay (P49407 whole entry partner): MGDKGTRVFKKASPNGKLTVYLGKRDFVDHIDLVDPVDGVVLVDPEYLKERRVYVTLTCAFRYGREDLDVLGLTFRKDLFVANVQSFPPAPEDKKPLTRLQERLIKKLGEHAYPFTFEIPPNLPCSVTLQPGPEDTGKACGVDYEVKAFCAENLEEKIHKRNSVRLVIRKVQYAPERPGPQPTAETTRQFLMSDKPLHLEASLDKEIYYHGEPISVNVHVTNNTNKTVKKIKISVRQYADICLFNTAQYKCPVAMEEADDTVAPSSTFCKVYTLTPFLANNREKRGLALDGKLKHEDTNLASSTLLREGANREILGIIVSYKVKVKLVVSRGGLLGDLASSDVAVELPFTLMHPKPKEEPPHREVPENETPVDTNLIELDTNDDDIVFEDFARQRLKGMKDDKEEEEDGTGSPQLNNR
relative efficacy for NanoBRET assays. SPR data were analyzed using T200 evaluation software (Cytiva). All data are presented as geometric means with SEM and n values according to established practices. ND, not determined. NA, not applicable.

GLP-1R [3] = target: T2, GLP-1R; test: Ligand-induced GLP-1R internalization, SNAP-GLP-1R HEK293 cells; format: cell-based
Target sequence in this assay (P43220 24-463): as the sequence (P43220 24-463) above

GLP-1R [4] = target: T2, GLP-1R; test: GLP-1R low density cAMP accumulation in HEK293 cells; format: cell-based; set-up: expressed in transfected cells; host or cells: HEK293
Protocol: (§4) Fig. 4. […] (B) Ligand-induced GTPγS binding of Gαs was performed using the GIPR-expressing membranes. […] (C) Agonist-stimulated cAMP production was measured in human GIPR expressing HEK293 cells. […] (E) Ligand-induced GTPγS binding of Gαs was performed using the GLP-1R-expressing membranes. […] (F) Agonist-stimulated cAMP production was measured in human GLP-1R-expressing HEK293 cells. […] Data presented are representative of n ≥ 3 independent experiments. Summarized data are shown in SI Appendix, Table 2. log M; log Molar.
We note that the albumin-binding propensity of fatty acid-modified peptides can confound a pharmacological comparison of molecules, given the common use of albumin and serum as nonspecific blocking agents in biological assays. Therefore, to obviate this, entirely albumin-free assays supplemented with bovine casein or bacitracin were used to prevent nonspecific binding ([10]). […]
Middle Panel: The affinity (Ki) of ligands for the GLP-1R was […]
as §2
Target sequence in this assay (P43220 24-463): as above
SPR data were analyzed using T200 evaluation software (Cytiva). All data are presented as geometric means with SEM and n values according to established practices. ND, not determined. NA, not applicable.

human GIPR = target: T3, human GIPR (Homo sapiens, UniProt P48546); test: GIPR low density cAMP accumulation in HEK293 cells; format: cell-based
T3 construct: expressed in transfected cells; host or cells: HEK293
T3 sequence (P48546 22-466): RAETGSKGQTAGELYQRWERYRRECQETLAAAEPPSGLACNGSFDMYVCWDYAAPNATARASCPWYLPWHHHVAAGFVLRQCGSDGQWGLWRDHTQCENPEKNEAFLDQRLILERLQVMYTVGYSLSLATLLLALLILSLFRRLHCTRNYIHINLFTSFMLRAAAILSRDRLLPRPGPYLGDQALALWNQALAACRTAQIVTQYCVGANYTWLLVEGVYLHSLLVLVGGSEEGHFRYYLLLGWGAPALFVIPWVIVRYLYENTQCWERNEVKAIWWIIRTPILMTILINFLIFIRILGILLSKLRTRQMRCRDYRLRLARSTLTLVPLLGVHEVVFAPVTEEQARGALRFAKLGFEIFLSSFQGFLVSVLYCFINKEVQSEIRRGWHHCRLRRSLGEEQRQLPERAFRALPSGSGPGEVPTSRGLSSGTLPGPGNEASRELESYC
Protocol: as §4
We note that the albumin-binding propensity of fatty acid-modified peptides can confound a pharmacological comparison of molecules, given the common use of albumin and serum as nonspecific blocking agents in biological assays. Therefore, to obviate this, entirely albumin-free assays supplemented with bovine casein or bacitracin were used to prevent nonspecific binding ([10]).
Functional potency (EC50)
and efficacy (% Top) of ligands to induce Gα s -GTPγS binding and cAMP accumulation in HEK293 cells expressing GIPR were determined. The equilibrium affinity (KD) of
ligands for the immobilized ectodomain of the GIPR were quantified by surface plasmon resonance. […]
SPR data were analyzed using T200 evaluation software (Cytiva). All data are presented as geometric means with SEM and n values
according to established practices. ND, not determined. NA, not applicable.

CC[C@H](C)[C@H](NC(=O)[C@H](CC(C)C)NC(=O)[C@H](Cc1c[nH]c2ccccc12)NC(=O)[C@H](CCC(N)=O)NC(=O)[C@@H](NC(=O)[C@H](Cc1ccccc1)NC(=O)[C@H](C)NC(=O)[C@H](CCCCN)NC(=O)[C@H](CCC(N)=O)NC(=O)[C@H](C)NC(=O)[C@@H](NC(=O)[C@H](CCCCN)NC(=O)[C@H](CC(=O)O)NC(=O)[C@H](CC(C)C)NC(=O)C(C)(C)NC(=O)[C@@H](NC(=O)[C@H](CO)NC(=O)[C@H](Cc1ccc(O)cc1)NC(=O)[C@H](CC(=O)O)NC(=O)[C@H](CO)NC(=O)[C@@H](NC(=O)[C@H](Cc1ccccc1)NC(=O)[C@@H](NC(=O)CNC(=O)[C@H](CCC(=O)O)NC(=O)C(C)(C)NC(=O)[C@@H](N)Cc1ccc(O)cc1)[C@@H](C)O)[C@@H](C)O)[C@@H](C)CC)[C@@H](C)CC)C(C)C)C(=O)N[C@@H](C)C(=O)NCC(=O)NCC(=O)N1CCC[C@H]1C(=O)N[C@@H](CO)C(=O)N[C@@H](CO)C(=O)NCC(=O)N[C@@H](C)C(=O)N1CCC[C@H]1C(=O)N1CCC[C@H]1C(=O)N1CCC[C@H]1C(=O)N[C@@H](CO)C(N)=O [Tzp∆C20]
pKd [1]: 5.77 | pEC50 (GLP-1R [2]; NanoBRET, geometric mean (SEM, n), read-out: GLP-1R β-Arr1 Recruitment EC50): 8.40 | GLP-1R β-Arr1 Recruitment Top (GLP-1R [2]; efficacy (% Top), relative efficacy to GLP-1, (SEM)): 25.9 (2.6) % | pEC50 (GLP-1R [3]; diffusion-enhanced resonance energy transfer, SNAP-GLP-1R HEK293 cells, 37 °C, geometric mean (SEM, n)): 8.26 | GLP-1R Internalization Top (GLP-1R [3]; efficacy (% Top), percent internalization compared to maximal GLP-1, (SEM)): 90.6 (3.0) % | pEC50 (GLP-1R [4]; cAMP accumulation, HEK293 cells expressing GLP-1R, albumin-free, geometric mean (SEM, n)): 8.98 | GLP-1R Low Density cAMP Top (GLP-1R [4]; efficacy (% Top), normalized to GLP-1(7-36), (SEM)): 105 (2) % | pEC50 (human GIPR; cAMP accumulation, HEK293 cells expressing GIPR, albumin-free, geometric mean (SEM, n)): 10.79 | GIPR Low Density cAMP Top (human GIPR; efficacy (% Top), normalized to GIP(1-42), (SEM)): 107 (4) %
